According to ChEMBL document CHEMBL3779893, “Identification of novel GLUT inhibitors” (Bioorg Med Chem Lett, 2016):

Assays:
[1] = biological target: T1, Solute carrier family 2, facilitated glucose transporter member 1 (Homo sapiens, UniProt P11166); experiment: Inhibition of human GLUT1 expressed in DLD1 cells assessed as ATP production co-incubated with 100 mM glucose for 16 hrs by CellTiter-Glo assay in presence of oxidative phosphorylation inhibitor rotenone; type: cell-based, DLD-1
T1 sequence (P11166 whole entry): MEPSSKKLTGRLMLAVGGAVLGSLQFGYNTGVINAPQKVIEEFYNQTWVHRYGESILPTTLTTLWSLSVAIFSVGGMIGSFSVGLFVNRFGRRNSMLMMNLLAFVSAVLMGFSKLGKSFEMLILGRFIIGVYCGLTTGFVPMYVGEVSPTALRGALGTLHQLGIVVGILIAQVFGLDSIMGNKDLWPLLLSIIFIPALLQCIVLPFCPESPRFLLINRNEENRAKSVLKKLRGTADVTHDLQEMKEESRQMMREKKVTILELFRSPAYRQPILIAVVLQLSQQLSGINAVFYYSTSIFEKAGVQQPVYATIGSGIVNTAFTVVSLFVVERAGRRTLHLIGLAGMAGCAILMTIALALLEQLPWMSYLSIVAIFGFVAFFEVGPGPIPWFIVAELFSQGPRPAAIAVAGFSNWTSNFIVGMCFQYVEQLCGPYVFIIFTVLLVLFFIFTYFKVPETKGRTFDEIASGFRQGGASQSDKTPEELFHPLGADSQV

[2] = biological target: T2, Solute carrier family 2, facilitated glucose transporter member 2 (Homo sapiens, UniProt P11168); experiment: Inhibition of human GLUT2 expressed in CHO cells assessed as ATP production co-incubated with 30 mM fructose for 16 hrs by CellTiter-Glo assay in presence of oxidative phosphorylation inhibitor rotenone; type: cell-based
T2 sequence (P11168 whole entry): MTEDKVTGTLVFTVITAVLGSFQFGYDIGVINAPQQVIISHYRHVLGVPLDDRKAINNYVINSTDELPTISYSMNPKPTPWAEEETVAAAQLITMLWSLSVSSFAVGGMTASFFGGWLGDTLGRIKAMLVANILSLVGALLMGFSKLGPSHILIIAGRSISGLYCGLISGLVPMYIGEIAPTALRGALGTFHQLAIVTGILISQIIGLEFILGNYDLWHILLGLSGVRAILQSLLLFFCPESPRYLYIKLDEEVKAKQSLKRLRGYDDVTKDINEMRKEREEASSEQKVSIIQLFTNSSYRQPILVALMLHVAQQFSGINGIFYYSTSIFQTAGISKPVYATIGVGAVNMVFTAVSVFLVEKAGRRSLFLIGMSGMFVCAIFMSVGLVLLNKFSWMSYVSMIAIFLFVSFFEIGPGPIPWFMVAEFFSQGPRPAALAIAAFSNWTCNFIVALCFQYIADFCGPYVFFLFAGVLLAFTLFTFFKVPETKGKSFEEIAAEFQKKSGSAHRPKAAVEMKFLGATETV

[3] = biological target: T3, Solute carrier family 2, facilitated glucose transporter member 3 (Homo sapiens, UniProt P11169); experiment: Inhibition of human GLUT3 expressed in GLUT1 knock-out DLD1 cells assessed as ATP production co-incubated with 300 mM glucose for 16 hrs by CellTiter-Glo assay in presence of oxidative phosphorylation inhibitor rotenone; type: cell-based, DLD-1
T3 sequence (P11169 whole entry): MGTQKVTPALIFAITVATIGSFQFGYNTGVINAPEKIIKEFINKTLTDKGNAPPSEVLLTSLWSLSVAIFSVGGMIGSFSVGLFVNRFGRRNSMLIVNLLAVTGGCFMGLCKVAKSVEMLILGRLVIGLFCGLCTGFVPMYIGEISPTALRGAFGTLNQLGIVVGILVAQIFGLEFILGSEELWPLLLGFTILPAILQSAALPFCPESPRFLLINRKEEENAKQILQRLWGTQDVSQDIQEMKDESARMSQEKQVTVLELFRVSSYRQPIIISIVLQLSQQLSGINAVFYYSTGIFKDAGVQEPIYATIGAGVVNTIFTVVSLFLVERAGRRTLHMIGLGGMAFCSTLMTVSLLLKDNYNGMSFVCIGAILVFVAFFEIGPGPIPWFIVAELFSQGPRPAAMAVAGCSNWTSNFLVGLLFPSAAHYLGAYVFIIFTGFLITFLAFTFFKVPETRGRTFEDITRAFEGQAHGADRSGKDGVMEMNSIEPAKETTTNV

| SMILES | IC50 [1] | IC50 [2] | IC50 [3] |
| --- | --- | --- | --- |
| COc1ccccc1N1CCN(c2ncnc3c2cnn3-c2ccccc2OC)CC1 | 50 nM | 1200 nM | 110 nM |
| N#Cc1cccc(N2CCN(c3ncnc4c3cnn4-c3ccccc3)CC2)c1 | 39 nM | 220 nM | 69 nM |
| COc1cnccc1N1CCN(c2ncnc3c2cnn3-c2ccccc2)CC1 | 230 nM |  | 1510 nM |
| COc1ccccc1N1CCN(c2ncnc3c2cnn3-c2ccc(C)cc2)CC1 | 1500 nM | 10000 nM | 3000 nM |
| COc1c(F)cccc1N1CCN(c2ncnc3c2cnn3-c2ccccc2)CC1 | 2400 nM | > 10000 nM | 10000 nM |
| COc1ccccc1N1CCN(c2ncnc3c2cnn3-c2ccc(F)cc2)CC1 | 17 nM | > 10000 nM | 46 nM |
| COc1ccccc1N1CCN(c2ncnc3c2cnn3-c2cccnc2)CC1 | 750 nM | 6000 nM | 1500 nM |
| COc1ncccc1N1CCN(c2ncnc3c2cnn3-c2ccccc2)CC1 | 180 nM | 1360 nM | 680 nM |
| COc1c(C#N)cccc1N1CCN(c2ncnc3c2cnn3-c2ccccc2)CC1 | 1200 nM | > 10000 nM | 540 nM |
| COc1ccccc1N1CCN(c2ncnc3c2cnn3-c2cccc(C)c2)CC1 | 50 nM | 10000 nM | 96 nM |
| COc1ccccc1N1CCCN(c2ncnc3c2cnn3-c2ccccc2)CC1 | 4 nM | 21 nM | 8 nM |
| COc1ccccc1N1CC2(C1)CN(c1ncnc3c1cnn3-c1ccccc1)C2 | 4400 nM |  | 2200 nM |
| COc1ccccc1N1CCN(c2nccc3c2cnn3-c2ccccc2)CC1 | 4000 nM | 5000 nM | 2000 nM |
| COc1cccnc1N1CCN(c2ncnc3c2cnn3-c2ccccc2)CC1 | 60 nM | 950 nM | 70 nM |
| COc1ccccc1N1CCN(c2ncnc3c2cnn3-c2ncccc2F)CC1 | 80 nM | 7000 nM |  |
| COc1ccccc1N1CCN(c2ncnc3c2cnn3C(C)c2ccccc2)CC1 (centres undefined) | 410 nM | 2100 nM | 950 nM |
| COc1ccc(-n2ncc3c(N4CCN(c5ccccc5OC)CC4)ncnc32)cn1 | 100 nM |  | 340 nM |
| COc1ccc(-n2ncc3c(N4CCN(c5ccccc5OC)CC4)ncnc32)cc1 | 230 nM | 2600 nM | 170 nM |
| Oc1ccccc1N1CCN(c2ncnc3c2cnn3-c2ccccc2)CC1 | 7 nM | 60 nM | 60 nM |
| COc1ccccc1N1CCN(c2ncnc3c2nnn3-c2ccccc2)CC1 | 49 nM | 3300 nM | 430 nM |
| FC(F)(F)Oc1ccccc1N1CCN(c2ncnc3c2cnn3-c2ccccc2)CC1 | > 10000 nM | > 10000 nM | > 10000 nM |
| Fc1ccccc1N1CCN(c2ncnc3c2cnn3-c2ccccc2)CC1 | 270 nM | 1120 nM | 680 nM |
| COc1ccccc1N1CCN(c2ncnc3c2cnn3-c2ccccc2C)CC1 | 10 nM | 1000 nM | 250 nM |
| FC(F)(F)c1ccccc1N1CCN(c2ncnc3c2cnn3-c2ccccc2)CC1 | > 10000 nM | > 10000 nM | > 10000 nM |
| COc1cc(C#N)ccc1N1CCN(c2ncnc3c2cnn3-c2ccccc2)CC1 | 150 nM | 1700 nM | 170 nM |
| COc1ccccc1N1CCN(c2ncnc3c2cnn3-c2ccccn2)CC1 | 510 nM | 8000 nM | 940 nM |
